Test results reported in US20230365673A1, “MEANS FOR REDUCING RADIO- AND CHEMOTHERAPY RESISTANCE AND ADVERSE EFFECTS” (JOHANN WOLFGANG GOETHE-UNIVERSITÄT FRANKFURT AM MAIN, priority 2020, published 2023).

Key:
APTKA orthotopic tumours = assay: Orthotopic APTKA organoid model with 5-FU chemotherapy, with or without radiotherapy; type: in vivo, C57BL/6 mice; conditions: 21 days
Protocol: (§1) FIG. 7: (A) APTKA organoids orthotopic transplantation into C57BL/6 mice followed by 5-fluorouracil (5-FU) chemotherapy (20 mg/Kg/day every 4 days for 21 days—experiment end point). Tumour area (mm3), % invasive area and liver metastasis frequency in untreated and 5-FU treated APTKA tumours (n=2 mice per group). Significant p-value<0.05 by t-test. (B and C) p21, pH2Ax IF and SA-ß gal staining quantifications and representative SA-ß gal staining images among untreated and 5-FU treated IL-1α (1 μg/mL) stimulated human fibroblasts and APTKA conditioned medium treated mouse fibroblasts. Significant p-value<0.05. Results representative of 4 independent experiments. Scale bars=100 μm.
The inventors further investigated, whether therapy resistance of tumours during treatment with cytotoxic chemotherapy is also connected to the senescence behavior of CAFs. For this, the orthotopic APTKA organoid C57BL/6 mice of the inventors' murine model were divided in three groups and subjected to different treatments. The groups consisted of a control group of untreated mice, a second group that was administered 20 mg/kg/day of the cytotoxic chemotherapeutic agent […] (5-FU) every 4 days and a third group that was treated with a therapy based on a concomitant administration of 5-FU and radiation therapy based on a fractionated irradiation schedule (5×2 Gy). After 21 days of treatment, parameters of tumour progression were determined. […] Overall, in vivo administration of the chemotherapy aggravated invasive growth and stimulated formation of liver metastases similarly to irradiation.

[1] = system: APTKA medium conditioned mouse fibroblasts; assay: p21, pH2AX and SA-βgal staining of APTKA medium conditioned fibroblasts; type: cell-based; conditions: 5-FU treated vs non-treated
Protocol: as §1
In staining experiments, the inventors quantified the presence of nuclear p21, nuclear phosphorylated H2AX (pH2AX) and SA-βgal in APTKA medium conditioned mouse fibroblasts that were either left untreated or treated with 5-FU. […] (FIG. 7B). Overall, these experiments confirmed a chemotherapy induced senescence of the fibroblasts, when exposed to 5-FU.

[2] = system: IL-1α stimulated human fibroblasts; assay: p21, pH2AX and SA-βgal staining of IL-1α stimulated fibroblasts; type: cell-based; conditions: IL-1α 1 μg/mL stimulated, 5-FU treated vs untreated
Protocol: as §1
Moreover, the inventors investigated the influence of chemotherapy on the IL-1α mediated changes to the tumour microenvironment in human cancer patients. Using staining experiments, the upregulation of pH2AX, p21, and SA-βgal in untreated and 5-FU treated IL-1α (1 μg/mL) stimulated human fibroblasts was quantified. […] Thus, targeting IL-1 in combination with chemotherapy may provide a substantial benefit particularly in tumours that are known to contain inflammatory cancer-associated fibroblasts such as pancreatic cancer, breast cancer or head and neck cancers.

[3] = system: primary mouse colon fibroblasts; assay: Inflammatory gene expression (RT-qPCR/RNAseq) in fibroblasts treated with APTKA conditioned medium; type: cell-based; conditions: APTKA conditioned medium, 24 h, RT-qPCR
Protocol: (A) Schematic illustration of APTKA or APTK organoids supernatant collection and treatment of primary mouse colon fibroblasts of unchallenged wildtype C57BL/6 mice. […] (F) Relative expression analysis by RT-qPCR of inflammatory genes in untreated wildtype and APTKA conditioned medium treated fibroblasts in the presence of IKKß inhibitor ML120B (30 μM) and p38 MAPK inhibitor SB203580 (10 μM) for 24 h (n=4 independent wells per group). Data are mean±SD. p<0.05 by one-way ANOVA followed by Tukey's multiple comparisons test. Representative results from one experiment which has been independently repeated 3 times. (G and H) RNA sequencing analysis of APTKA (n=3) and APTK (n=3) organoids: (G) heat map analysis; (H) differentially expressed cytokines in APTKA (Log 2 fold change≤−1) compared to APTK organoids (log 2 fold Change≥1). p-value<0.05. (I) RT-qPCR analysis of inflammatory genes in APTKA conditioned fibroblasts treated with control IgG, α-IL-1α, α-IL-33, α-TNF-α, α-BAFF or α-CXCL16 neutralizing antibodies (2 μg/mL each) for 24 h (n=4 independent wells per group). Data are mean±SD. **** p<0.0001 by one-way ANOVA followed by Tukey's multiple comparisons test. Experiment performed twice. (J) RNA expression profiles of inflammatory genes in APTKA conditioned fibroblasts stimulated for 24 h then subjected to anakinra (10 μg/mL), APTKA fresh or regular medium treatments for another 24 h (n=4 independent wells per condition). Data are mean±SD; p<0.05 by one-way ANOVA followed by Tukey's multiple comparisons test. Representative results from one experiment which has been independently repeated 2 times.
To examine whether APTK and APTKA tumour organoids differentially affect surrounding fibroblasts in tumours directly in a paracrine manner, supernatants were collected from both tumour organoid lines and treated primary intestinal fibroblasts of unchallenged wildtype mice for 24 hours with the two different tumour-conditioned media ex vivo (FIG. 3A). RNAseq analysis confirmed distinct gene expression patterns in fibroblasts exposed to the two organoid supernatants (FIG. 3B).
The inventors then aimed to identify the upstream factors secreted by APTKA organoids that were responsible for activating NF-κB and p38 in fibroblasts. To this end RNAseq analysis of APTK and APTKA tumour organoids were performed and identified several differentially expressed genes encoding cytokines (FIG. 3G, H). Using neutralizing antibodies, NF-κB and p38 inducing cytokines TNFα, IL-1α, IL-33, BAFF or CXCL16 were blocked in APTKA supernatants and expression of Cxcl1, Cxcl2, Cxcl5 and Ilia as inflammatory marker genes in fibroblasts was examined.
To do so, fibroblasts were stimulated for 24 hours with APTKA conditioned medium before adding anakinra, adding fresh APTKA medium or changing medium to regular medium.

colon fibroblasts [4] = assay: Nitrite concentration by Griess assay in fibroblast supernatants; type: cell-based, mouse; conditions: APTKA-conditioned medium plus W1400 1 mM
Protocol: (§2) (A) Schematic illustration of APTKA organoids supernatant collection and treatment of colon fibroblasts from unchallenged wildtype C57BL/6 mice for 12 h followed by 3×2 Gy irradiation. Microscopic, proteomic & transcriptomic analysis were performed 72 h post first irradiation. (B) Microscopic captures of non-irradiated wildtype (WT) and APTKA conditioned fibroblasts. Remaining captures belong to irradiated fibroblasts: WT, IL-1α (1 μg/mL) stimulated WT, and APTKA conditioned media minus or plus anakinra (20 μg/mL) treated fibroblasts. Scale bars=200 μm. (C) Mass spectrometric analysis of matrisome profiles of 3×2 Gy irradiated (n=8) and non-irradiated (n=8) APTKA conditioned fibroblasts. […] (G) Immunoblot analysis of untreated and irradiated APTKA conditioned fibroblasts. Representative results from one experiment which has been independently repeated 2 times. (H) SA-ß gal staining of untreated and irradiated APTKA fibroblasts. Scale bars=100 μm. (I and J) p21 and pH2AX immunofluorescent staining of untreated and irradiated APTKA fibroblasts. Scale bars=[…]. Data are mean±SD. ** […] and *** p<0.001 by t-test. (K) Nitrite concentration determined by Griess assay in conditioned media from WT, APTK media, APTKA media, IL-1α (1 μg/mL) stimulated and APTKA plus anakinra (20 μg/mL) treated fibroblasts for 72 h (n=10 independent wells per group). […]

colon fibroblasts [5] = assay: Oxidative DNA damage by 8-OHdG immunofluorescence in fibroblasts; type: cell-based, mouse; conditions: APTKA-conditioned medium plus W1400 1 mM, 72 h
Protocol: as §2

[6] = system: APTKA conditioned fibroblasts; assay: Senescence induction in fibroblasts treated with APTKA-conditioned medium; type: cell-based, mouse; conditions: APTKA-conditioned medium plus W1400
Protocol: as §2

[7] = 5-FU only, 20 mg/kg/day every 4 days, vs untreated control
[8] = concomitant 5-FU and radiotherapy (5×2 Gy), vs untreated control

## O=c1[nH]cc(F)c(=O)[nH]1 [5-FU, 5-fluorouracil]
APTKA orthotopic tumours; [7]
  liver metastases: have developed liver metastases
  tumour area: significant increase in tumour area
  tumour invasiveness (% invasive area): significant increase in tumour area and tumour invasiveness
APTKA orthotopic tumours; concomitant 5-FU and radiotherapy (5×2 Gy)
  liver metastases: every mouse of this group suffered from liver metastases
APTKA orthotopic tumours; [8]
  invasive area: significant increase in tumour area and invasive area
  tumour area: significant increase in tumour area
[1]
  SA-βgal staining: significant upregulation of SA-βgal
  nuclear p21: significant upregulation of SA-βgal and nuclear p21
  nuclear phosphorylated H2AX (pH2AX): significant increase of pH2AX
[2]
  SA-βgal: significant increase of all three biomarkers
  p21: significant increase of all three biomarkers
  pH2AX: significant increase of all three biomarkers

## COc1c(Cl)cc2c([nH]c3cnccc32)c1NC(=O)c1cccnc1C [ML120B]
[3]; ML120B 30 μM
  induction of pro-inflammatory genes (Cxcl1, Cxcl2, Cxcl5, Mmp9, Mmp13, Il1a, 116, Tnfa, Nos2): significantly inhibited the induction of pro-inflammatory genes

## C[S+]([O-])c1ccc(-c2nc(-c3ccncc3)c(-c3ccc(F)cc3)[nH]2)cc1 (centres unmarked) [SB203580]
[3]; SB203580 10 μM
  induction of pro-inflammatory genes (Cxcl1, Cxcl2, Cxcl5, Mmp9, Mmp13, Il1a, 116, Tnfa, Nos2): significantly inhibited the induction of pro-inflammatory genes

## CC(=N)NCc1cccc(CN)c1 [W1400]
Colon fibroblasts [4]
  nitrite production: blocked nitrite production
Colon fibroblasts [5]
  oxidative DNA damage (8-OHdG immunofluorescence): prevented oxidative DNA damage
[6]
  senescence induction: prevented oxidative DNA damage as well as senescence induction
